Laboratory results reported in patent publication US6635437B2, “Compounds, compositions and methods for generating chemiluminescence with phosphatase enzymes” (Lumigen, Inc., priority 1996, dated 2003).

Columns and labels:
[1] = tested on: alkaline phosphatase (AP); assay: Chemiluminescent detection of alkaline phosphatase with acridan phosphate and surfactant enhancer; format: biochemical; settings: 25° C.; for S/B (ratio of maximum light intensity to light intensity in the absence of enzyme): 0.33 mM 1, 0.01 mg/mL Enhancer A
acid phosphatase (AcP) [2] = assay: Chemiluminescent detection of acid phosphatase and inhibition by tartrate; format: biochemical; settings: 0.33 mM 1, 0.1 M tris pH 7, 0.01-0.1% Enhancer A; ambient temperature
Experimental: The quenching of emission was not due to a reduction of the pH since addition of 10 μL of citrate buffer caused only a 25% reduction in light intensity.

acid phosphatase (AcP) [3] = assay: Chemiluminescent detection of AcP by pH change; format: biochemical; settings: 0.33 mM 1, tris pH 7.0, 0.1% BSA, 0.01% Enhancer A, 3 μL AcP, 8 min; 1 N NaOH injected, integrated 4 min
Experimental: An alternate way to detect the light emitted by reaction of AcP with 1 is to incubate a reagent composition containing 1 and enhancer with AcP at a first pH and then rapidly raise the pH by injecting a solution of a strong base to cause a burst of light emission. A reagent composition (100 μL) comprising 0.33 mM acridan phosphate 1 in 0.1 M tris buffer, pH 7.0, 0.1% BSA and 0.01% Enhancer A was reacted with 3 μL of AcP (Sigma AcP LIN-TROL, reconstituted to 2.0 mL, 83 U/L) for 8 min at ambient temperature in a test tube. A solution of 1 N NaOH (50 μL) was injected and light intensity integrated for 4 min.

AP-labeled antibody [4] = assay: Western blot assay of human transferrin using PVDF membrane
Excerpt: The chemiluminescent reaction of the present invention provides a particularly effective reagent for detection of AP conjugates on polyvinylidene difluoride (PVDF) membranes, nylon membranes and on nitrocellulose filters and membranes.
provides an intense luminescence which rises to a maximum level nearly instantly and maintains essentially constant intensity for at least 2 days. Detection on film and optimizing image intensity are thus particularly convenient.
Compositions of the present invention were used to detect and quantify a protein, human transferrin in a Western blot with an AP-labeled antibody on a polyvinylidene difluoride (PVDF) membrane. Dilutions of transferrin containing from 5000, 1000, 180, 30 and 5 pg, respectively, of protein were electrophoresed and transferred to PVDF membranes (Millipore, Bedford, Mass.). The transferrin bands were blocked with and then reacted sequentially with goat anti-human transferrin and rabbit anti-goat-AP conjugate. The membranes were soaked briefly with reagents comprising 0.2 M 221 buffer, pH 9.6 containing 0.88 mM MgCl2, 0.66 mM acridan phosphate 1 and 0.1 to 1 mg/mL of Enhancer A. The membranes were placed between transparent plastic sheets and exposed to X-ray film. […] The light produced using these compositions with varying amounts of the enhancer led to intense emission which could be imaged for at least 2 weeks. […]

AP-labeled antibody [5] = assay: Western blot using nitrocellulose membrane; settings: 0.33 mM 1, pH 9.6, 0.5 mg/mL Enhancer A
Experimental: A Western blot assay according to the procedures in Example 27 was performed using nitrocellulose membrane as the solid phase. Transferrin standards in the range of 5000-30 pg were used.

[6] = tested on: alkaline phosphatase (AP); assay: Chemiluminescent detection of alkaline phosphatase with acridan phosphate and cationic aromatic compound (CAC); format: biochemical; settings: for S at 36 min (plateau intensity): 21 mM CAC in DMSO diluted 1:1000 into compound 5 in 0.1 M tris pH 8.8, 4×10^−16 mol AP, room temperature
AP-labeled antibody [7] = assay: Western blot assay with compound 5 and lucigenin; settings: 0.66 mM 5, 64 μM lucigenin, 0.1 M tris pH 8.8; PVDF membrane
Excerpt: A composition of the present invention were used to detect and quantify a protein, human transferrin in a Western blot with an AP-labeled antibody on a polyvinylidene difluoride (PVDF) membrane. Dilutions of transferrin containing from 5000, 1000, 180, 30 and 5 pg, respectively, of protein were electrophoresed and transferred to PVDF membranes (Millipore, Bedford, Mass.). The transferrin bands were blocked with and then reacted sequentially with goat anti-human transferrin and rabbit anti-goat-AP conjugate. The membranes were soaked briefly with reagents comprising 0.1 M tris buffer, pH 8.8 containing 0.88 mM MgCl2, 0.66 mM compound 5 and 64 μM lucigenin. The membranes were placed between transparent plastic sheets and exposed to X-ray film. The bands for human transferrin were detected after 10 min with a 2.5 min exposure. The light produced using this composition led to intense emission which could be imaged for several hours.
Similar results were obtained using nitrocellulose blotting membrane instead of PVDF membrane.

[8] = 0.66 mM 5, 0.2 M 2-methyl-2-amino-1-propanol pH 9.6, 0.5 mg/mL Enhancer A, 10^−13 mol AP

CN1c2ccccc2C(=C(Oc2ccccc2)OP(=O)([O-])[O-])c2ccccc21.[Na+].[Na+] [Compound 1, 9-(Phenoxyphosphoryloxymethylidene)-10-methylacridan, disodium salt]
time to maximum chemiluminescence intensity ([1]; 0.33 mM 1, 0.1 M tris pH 8.5, 0.88 mM Mg, 0.01 mg/mL Enhancer A, 10^−13 mol AP): 2 min
chemiluminescence on reaction with AP ([1]; composition of Example 14 (0.1 M tris pH 8.5, Enhancer A), AP): easily measurable blue chemiluminescence
S/B (ratio of maximum light intensity to light intensity in the absence of enzyme) ([1]; pH 7.0, tris, 8×10^−16 mol AP): 37
S/B (ratio of maximum light intensity to light intensity in the absence of enzyme) ([1]; pH 7.5, tris, 8×10^−16 mol AP): 144
S/B (ratio of maximum light intensity to light intensity in the absence of enzyme) ([1]; pH 8.0, tris, 8×10^−16 mol AP): 273
S/B (ratio of maximum light intensity to light intensity in the absence of enzyme) ([1]; pH 8.5, tris, 8×10^−16 mol AP): 280
S/B (ratio of maximum light intensity to light intensity in the absence of enzyme) ([1]; pH 9.0, 221 buffer, 8×10^−16 mol AP): 200
S/B (ratio of maximum light intensity to light intensity in the absence of enzyme) ([1]; pH 9.0, tris, 8×10^−16 mol AP): 195
S/B (ratio of maximum light intensity to light intensity in the absence of enzyme) ([1]; pH 9.5, 221 buffer, 8×10^−16 mol AP): 87
S/B (ratio of maximum light intensity to light intensity in the absence of enzyme) ([1]; pH 10.0, 221 buffer, 8×10^−16 mol AP): 13
S/B (ratio of maximum light intensity to light intensity in the absence of enzyme) ([1]; pH 10.5, 221 buffer, 8×10^−16 mol AP): 1.3
time to maximum chemiluminescence intensity ([1]; reagent composition of Example 14, 8×10^−16 mol AP): ca. 2 min
time course of chemiluminescence with AcP (acid phosphatase (AcP) [2]): reached maximum intensity nearly instantaneously and remained nearly constant for several minutes
light intensity relative to reagent blank (acid phosphatase (AcP) [3]): three times the reagent blank
time for which emission could be imaged (AP-labeled antibody [4]; 0.66 mM 1, 0.2 M 221 buffer pH 9.6, 0.1 to 1 mg/mL Enhancer A, PVDF): at least 2 weeks
time for which luminescence maintains essentially constant intensity (AP-labeled antibody [4]; antibody-AP conjugate on PVDF membrane): at least 2 days
period over which detection could be performed (AP-labeled antibody [5]): over several hours
S at 36 min (plateau intensity) [6]: 2602

CN1c2ccccc2C(=C(OP(=O)([O-])[O-])Sc2ccccc2)c2ccccc21.[Na+].[Na+] [Compound 5, 9-(Phenylthiophosphoryloxymethylidene)-10-methylacridan, disodium salt]
chemiluminescence on reaction with AP [1, 8]: easily measurable blue chemiluminescence
time to maximum chemiluminescence intensity [1, 8]: 2 min
time to maximum chemiluminescence intensity ([6]; 0.66 mM 5, 6.4 μM lucigenin, 1 mg/mL SDS, 0.01 mg/mL Na2SO3, 0.033% TWEEN 20, tris pH 8.8, 8×10^−16 mol AP, 25° C.): 2 min
S at 36 min (plateau intensity) [6]: 34.7
period for which emission could be imaged (AP-labeled antibody [7]): several hours
